Source: ChEMBL document CHEMBL5620400, “Design, synthesis, antiviral evaluation, and In silico studies of acrylamides targeting nsP2 from Chikungunya virus” (Eur J Med Chem, 2023)

Tests used:
[1] = Cytotoxicity against african green monkey Vero cells assessed as cell viability measured after 48 hrs by MTT assay; format: toxicity, cell-based; settings: chlorocebus sabaeus
Chikungunya virus [2] = assay: Antiviral activity against CHIKV infected african green monkey Vero cells assessed as inhibition of virus induced cytopathic effect measured after 48 hrs; format: functional, organism-based
Sindbis virus [3] = assay: Antiviral activity against SINV infected african green monkey Vero cells assessed as reduction in viral titer measured after 24 hrs by plaque assay; format: functional, organism-based
Polyprotein P1234 [4] = target: T1, Polyprotein P1234 (Chikungunya virus (strain S27-African prototype) (CHIKV), UniProt Q8JUX6); assay: Binding affinity to CHIKV nsP2 assessed as inhibition constant by measuring fluorescence by multimode microplate reader
Sindbis virus [5] = assay: Antiviral activity against SINV infected african green monkey Vero cells assessed as reduction of plaque formation at 100 uM measured after 48 hrs relative to control; format: functional
Polyprotein P1234 [6] = target: T1, Polyprotein P1234; assay: Inhibition of CHIKV nsP2 protease activity assessed as decrease in the fluorescence signal using peptide substrate measured for 20 mins by FRET analysis
[7] = Selectivity index, ratio of CC50 for African green monkey Vero cells to EC50 for CHIKV; format: toxicity; settings: read-out: Selectivity Index
Polyprotein P1234 [8] = target: T1, Polyprotein P1234; assay: Binding affinity to CHIKV nsP2 assessed as equilibrium dissociation constant by isothermal titration calorimetry
Chikungunya virus [9] = assay: Antiviral activity against CHIKV infected african green monkey Vero cells assessed as inhibition of virus induced cytopathic effect by measuring virus positive cells at 50 uM measured after 48 hrs by flow cytometry relative to control; format: functional; parameters: scale not given: the % may be the effect or the level left
[10] = Antiviral activity against […] infected african green monkey Vero cells assessed as reduction in viral RNA copies measured per uL at 50 uM measured after 24 hrs (reference value: 1.4 x […] vRNA copy numbers/uL); format: functional

T1 sequence (Q8JUX6 536-1333 limits assumed): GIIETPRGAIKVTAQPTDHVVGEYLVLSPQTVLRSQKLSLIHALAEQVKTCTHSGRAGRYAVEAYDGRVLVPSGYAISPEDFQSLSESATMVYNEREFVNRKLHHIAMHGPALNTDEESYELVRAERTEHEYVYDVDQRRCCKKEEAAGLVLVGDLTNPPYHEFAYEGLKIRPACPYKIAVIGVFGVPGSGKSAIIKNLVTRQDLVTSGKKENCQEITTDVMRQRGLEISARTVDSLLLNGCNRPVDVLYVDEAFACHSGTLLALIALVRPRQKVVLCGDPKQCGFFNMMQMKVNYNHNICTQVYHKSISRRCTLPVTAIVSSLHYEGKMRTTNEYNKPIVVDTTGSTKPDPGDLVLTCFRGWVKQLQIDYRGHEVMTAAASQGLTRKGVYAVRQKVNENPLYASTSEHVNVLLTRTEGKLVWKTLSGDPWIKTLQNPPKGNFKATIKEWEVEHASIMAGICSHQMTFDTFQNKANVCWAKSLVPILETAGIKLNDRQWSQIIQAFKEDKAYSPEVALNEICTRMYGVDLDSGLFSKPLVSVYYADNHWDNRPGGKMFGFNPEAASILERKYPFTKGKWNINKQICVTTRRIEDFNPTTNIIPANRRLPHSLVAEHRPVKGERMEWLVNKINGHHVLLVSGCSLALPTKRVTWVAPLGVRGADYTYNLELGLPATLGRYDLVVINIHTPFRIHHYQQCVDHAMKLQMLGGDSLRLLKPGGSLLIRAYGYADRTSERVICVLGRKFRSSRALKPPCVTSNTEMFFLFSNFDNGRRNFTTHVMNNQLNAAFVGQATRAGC

Structure (SMILES)	CC50 at 48 h [1]	EC50 (Chikungunya virus [2])	EC50 (Sindbis virus [3])	Ki (Polyprotein P1234 [4])	Imax (Sindbis virus [5])	IC50 (Polyprotein P1234 [6])	selectivity ratio [7]	Kd (Polyprotein P1234 [8])	Activity (Chikungunya virus [9])	Activity [10]
COc1ccccc1/C=C/C(=O)Nc1ccccc1	> 200 µM	25.9 µM	73.1 µM	2.3 µM	58%	0.95 µM	> 7.72	198 µM	–	–
O=C(/C=C/c1ccc(C(F)(F)F)cc1)Nc1ccccc1	165 µM	5.2 µM	0.95 µM	48.6 µM	95.76%	12.5 µM	31.8	127 µM	35.8%	720000
O=C(/C=C/c1ccc(Cl)cc1Cl)Nc1ccccc1	> 200 µM	47.9 µM	< 3.12 µM	92.3 µM	88.77%	20 µM	> 4.17	159 µM	–	–
O=C(/C=C/c1ccc(Br)cc1)Nc1ccccc1	–	–	3.2 µM	182 µM	>79.9%	15.2 µM	–	218 µM	–	–
